Measurements as given in patent US12091405B2, “Substituted pyrazole compounds as indoleamine 2,3-dioxygenase inhibitors” (Merck Sharp & Dohme LLC, priority 2018, dated 2024).

target: IDO1 (Homo sapiens, UniProt P14902); assay: IDO1 Cellular Assay in HeLa Cells Stimulated with IFNγ; type: cell-based; conditions: IFNγ 100 ng/mL, 300 uM L-tryptophan, about 48 hours, fluorescence readout, read-out: IDO1 HELA Cell Assay, IC50
Description: Biological Assays IDO1 Cellular Assay in HeLa Cells Stimulated with IFNγ
HeLa cells were cultured in complete HeLa culture medium (90% EMEM, 10% heat-inactivated fetal bovine serum) and expanded to about 1×10^9 cells. The cells were then collected and frozen down at 1×10^7 cells/vial in 1 mL frozen medium (90% complete HeLa culture medium, 10% DMSO).
Compounds to be tested were serially diluted in ten 3-fold steps in DMSO starting from 10 mM DMSO stocks in Echo low volume plate(s). Compound dilutions or DMSO alone were then dispensed from the dilution plate(s) into Greiner black 384-well assay plate(s) (catalog #781086, 50 nL/well) using an Echo 550 acoustic liquid handler (Labcyte).
Frozen HeLa cells were thawed and transferred into HeLa assay medium (99% complete HeLa culture medium, 1% Pen/Strep) with 20 mL medium/vial of cells. The cells were spun down at 250 g in a table top centrifuge for 5 min and suspended in same volume of HeLa assay medium. The cells were then counted and adjusted to a density of 2×10^5 cells/mL in HeLa assay medium. Sterile L-tryptophan were added to the cells with final concentration of 300 uM L-tryptophan. A small aliquot (2 mL/plate) of HeLa cells were set aside and were not treated with IFNγ, to serve as the Max-E control.
HeLa cells with and without IFNγ were dispensed to the respective wells of 384-well assay plates containing the compounds. The plates were incubated for about 48 hours at a 37° C., 5% CO2 incubator. Afterwards, 12 μL of 0.5 M methyl isonipecotate in dimethyl sulfoxide were added into each well and the plates were sealed and incubated at 37° C. without CO2 overnight. The plates were centrifuged for 1 min at 200×g. The resulting fluorescence was measured in a Spectramax plate reader (Molecular Devices) with a 400 nm excitation filter and a 510 nm emission filter.
The fluorescence intensity of each well was corrected for the background observed in wells with non-IFNγ-treated cells and was expressed as a fraction of the intensity observed in wells of IFNγ-treated cells and DMSO only. Potencies were calculated by linear least squares fit to the four parameter logistic IC50 equation.
Compounds disclosed herein generally have IC50 of about 0.1 nM to about 20,000 nM, or more specifically, about 1 nM to about 10,000 nM, or more specifically, about 5 nM to about 5,000 nM, or more specifically, about 10 nM to about 1,000 nM, or still more specifically, about 10 nM to about 500 nM.

Chain of IDO1 (P14902 whole entry): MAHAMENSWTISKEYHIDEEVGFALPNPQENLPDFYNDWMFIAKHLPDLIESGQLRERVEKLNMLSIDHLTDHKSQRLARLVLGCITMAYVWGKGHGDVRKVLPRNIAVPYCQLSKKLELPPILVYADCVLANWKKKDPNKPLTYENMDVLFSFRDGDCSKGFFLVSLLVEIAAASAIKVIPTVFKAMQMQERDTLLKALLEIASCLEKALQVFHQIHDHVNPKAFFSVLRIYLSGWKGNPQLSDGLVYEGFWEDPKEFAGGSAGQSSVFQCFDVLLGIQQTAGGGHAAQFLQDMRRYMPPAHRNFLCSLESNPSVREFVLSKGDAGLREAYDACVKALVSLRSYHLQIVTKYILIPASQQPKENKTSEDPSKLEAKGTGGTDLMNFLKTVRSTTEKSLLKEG

| SMILES | IC50 |
| --- | --- |
| C[C@@H]1CN(C(=O)c2nn(CC(=O)N3CCC(c4cccc(F)c4Cl)CC3)c3c2CCC3)C[C@H](C)O1 [Example 97, 1-[4-(2-chloro-3-fluorophenyl)piperidin-1-yl]-2-{3-[(2R,6S)-2,6-dimethylmorpholine-4-carbonyl]-5,6-dihydrocyclopenta[c]pyrazol-1(4H)-yl}ethan-1-one] | 24.1 nM |
| Cc1cccc(C2CCN(C(=O)Cn3nc(C(=O)N4CC[C@H](O)[C@H](F)C4)c4c3C[C@@H]3C[C@H]43)CC2)c1C [Example 29, 1-[4-(2,3-dimethylphenyl)piperidin-1-yl]-2-{(3bS,4aS)-3-[(3R,4S)-3-fluoro-4-hydroxypiperidine-1-carbonyl]-3b,4,4a,5-tetrahydro-1H-cyclopropa[3,4]cyclopenta[1,2-c]pyrazol-1-yl}ethan-1-one] | 54.2 nM |
| C[C@@H]1CN(C(=O)c2nn(CC(=O)N3CCC(c4ccc5ccccc5c4)CC3)c3c2CCC3)C[C@H](C)O1 [Example 76, 2-{3-[(2R,6S)-2,6-dimethylmorpholine-4-carbonyl]-5,6-dihydrocyclopenta[c]pyrazol-1(4H)-yl}-1-[4-(naphthalen-2-yl)piperidin-1-yl]ethan-1-one] | 199 nM |
| C[C@@H]1CN(C(=O)c2nn(CC(=O)N3CCC(c4ccc(C(F)(F)F)c(Cl)c4)CC3)c3c2CCC3)C[C@H](C)O1 [Example 169, 1-{4-[3-chloro-4-(trifluoromethyl)phenyl]piperidin-1-yl}-2-{3-[(2R,6S)-2,6-dimethylmorpholine-4-carbonyl]-5,6-dihydrocyclopenta[c]pyrazol-1(4H)-yl}ethan-1-one] | 329 nM |
| Cc1cc(C2CCN(C(=O)Cn3nc(C(=O)N4C[C@@H](C)O[C@@H](C)C4)c4c3CCC4)CC2)ccc1F [Example 94, 2-{3-[(2R,6S)-2,6-dimethylmorpholine-4-carbonyl]-5,6-dihydrocyclopenta[c]pyrazol-1(4H)-yl}-1-[4-(4-fluoro-3-methylphenyl)piperidin-1-yl]ethan-1-one] | 18.9 nM |
| CCc1cccc(C2CCN(C(=O)Cn3nc(C(=O)N4C[C@@H](C)O[C@@H](C)C4)c4c3CCC4)CC2)c1 [Example 96, 2-{3-[(2R,6S)-2,6-dimethylmorpholine-4-carbonyl]-5,6-dihydrocyclopenta[c]pyrazol-1(4H)-yl}-1-[4-(3-ethylphenyl)piperidin-1-yl]ethan-1-one] | 21.5 nM |
| C[C@@H]1CN(C(=O)c2nn(CC(=O)N3CCC(c4cccc(C5(C)CC5)c4)CC3)c3c2CCC3)C[C@H](C)O1 [Example 125, 2-{3-[(2R,6S)-2,6-dimethylmorpholine-4-carbonyl]-5,6-dihydrocyclopenta[c]pyrazol-1(4H)-yl}-1-{4-[3-(1-methylcyclopropyl)phenyl]piperidin-1-yl}ethan-1-one] | 57.7 nM |
| C[C@@H]1CN(C(=O)c2nn(CC(=O)N3CCC(c4cc(F)c(F)c(F)c4Cl)CC3)c3c2CCC3)C[C@H](C)O1 [Example 132, 1-[4-(2-chloro-3,4,5-trifluorophenyl)piperidin-1-yl]-2-{3-[(2R,6S)-2,6-dimethylmorpholine-4-carbonyl]-5,6-dihydrocyclopenta[c]pyrazol-1(4H)-yl}ethan-1-one] | 80.2 nM |
| C[C@@H]1CN(C(=O)c2nn(CC(=O)N3CCC(F)(c4ccccc4)CC3)c3c2CCC3)C[C@H](C)O1 [Example 63, 2-[3-[(2R,6S)-2,6-dimethylmorpholine-4-carbonyl]-5,6-dihydro-4H-cyclopenta[c]pyrazol-1-yl]-1-(4-fluoro-4-phenyl-1-piperidyl)ethanone] | 296 nM |
| Cc1cccc(C2(F)CCN(C(=O)Cn3nc(C(=O)N4CCC(O)CC4)c4c3C[C@H]3C[C@@H]43)CC2)c1C [Example 10, 1-(4-(2,3-dimethylphenyl)-4-fluoropiperidin-1-yl)-2-((3bR,4aR)-3-(4-hydroxypiperidine-1-carbonyl)-3b,4,4a,5-tetrahydro-1H-cyclopropa[3,4]cyclopenta[1,2-c]pyrazol-1-yl)ethanone] | 3.4 nM |
